What all share (experiment): 3' UTR reporter interaction score (median-centred robust z-score of log2 firefly/Renilla activity); higher = less repression of the 3' UTR reporter
What all share (details): HEK293T; 48 h

The test system of data set [1] is MYT1L. An outline of the steps: (§1)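 A firefly luc2P reporter carrying the gene's 3' UTR (100 ng), Renilla pRL-TK control (20 ng) and miRNA mimic (2.5 pmol) were co-transfected with DharmaFECT Duo into HEK293T cells plated at 10,000/well in 96-well plates. Luciferase activities were read 48 h post-transfection. The interaction score is the log firefly/Renilla ratio as a per-plate robust z-score from median and median absolute deviation, median-centred per miRNA, and more negative indicates interaction. Values are averages of at least two independent screens.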

Data set [2] has as its system MYCN. An outline of the steps: as §1
Data set [3] concerns PHOX2B. A digest of the protocol: as §1
Data set [4] relates to NOTCH1. An outline of the steps:
as §1

Data set [5] concerns MYC. An outline of the steps:
as §1

For data set [6], the system named is RB1. An outline of the steps:
as §1

For data set [7], the system named is HRAS. A digest of the protocol:
as §1

Data set [8] concerns EZH2. An outline of the steps: as §1
Data set [9] concerns BRCA2. An outline of the steps: as §1
Data set [10] relates to TP53. An outline of the steps:
as §1

The test system of data set [11] is FBXW7. An outline of the steps: as §1
The subject of data set [12] is PHF6. An outline of the steps: as §1
In data set [13] the test system is ZEB2. An outline of the steps: as §1
The subject of data set [14] is MYB. An outline of the steps: as §1

Consider UCCUGUACUGAGCUGCCCCGAG, for which the “3' UTR reporter interaction score” value is -1.49 in data set [1]; 0.364 in data set [2]; 1.42 in [3]; -0.221 in data set [4]; -0.142 in data set [5]; -2.81 in [6]. Further, the “3' UTR reporter interaction score” value was 0.706 in data set [7]; 0.519 in data set [8]; -2.39 in data set [9]; -0.164 in data set [10]; 0.155 in [11]; -0.91 in [12]. The “3' UTR reporter interaction score” value in data set [13] was -2.27; in [14], -1.33.
Consider GUUGGAGGAUGAAAGUACGGAGUGAU, for which the “3' UTR reporter interaction score” value in [1] is -0.433; in [2], 0.4; in [3], 1.82; in data set [4] it was -0.207; in data set [5], -0.154; in data set [6], 0.55. For the same sequence, the “3' UTR reporter interaction score” value in data set [7] is -0.155; in [8] it was 0.25; in data set [9] it was -1.61; in data set [10] it was -1.24; in data set [11], 1.07; in data set [12], 0.571. Also, the “3' UTR reporter interaction score” value in data set [13] came out at 0.0694; in data set [14], 0.331.
For UGGUUCUAGACUUGCCAACUA, the “3' UTR reporter interaction score” value was -0.905 in [1]; 0.807 in data set [2]; -0.729 in [3]; -0.954 in [4]; 0.238 in data set [5]; 0.0711 in data set [6]. The “3' UTR reporter interaction score” value is 0.292 in data set [7]; 0.495 in [8]; -1.9 in data set [9]; -0.646 in [10]; 0.0613 in [11]; 0.0797 in data set [12]. Also, the “3' UTR reporter interaction score” value in data set [13] was determined as 1.08; in [14] it was 0.383.
Turning to UCCAGUACCACGUGUCAGGGCCA, the “3' UTR reporter interaction score” value in data set [1] was 0.747; in data set [2], -3.01; in data set [3], 0.294; in data set [4], 0.223; in [5] it was -0.893; in [6] it was 0.837. In addition, the “3' UTR reporter interaction score” value was 0.159 in data set [7]; -1.44 in [8]; 0.581 in [9]; -0.171 in data set [10]; -1.35 in data set [11]; -0.805 in [12]. Also, the entries for the “3' UTR reporter interaction score” value in data set [13] and in data set [14] were 0.742 and 0.593, respectively.
Consider UAGUGCAAUAUUGCUUAUAGGGUUU, for which the “3' UTR reporter interaction score” value is 0.572 in data set [1]; 0.515 in data set [2]; -0.0733 in data set [3]; 0.766 in data set [4]; 0.454 in data set [5]; 1.16 in data set [6]. Further, the “3' UTR reporter interaction score” value in data set [7] is 0.0165; in data set [8], -1.22; in data set [9] it was -0.656; in data set [10], -1.04; in data set [11], 0.629; in data set [12] it was 0.108. Besides, the “3' UTR reporter interaction score” value was -0.0644 in data set [13] and -2.42 in [14].
As to UAAUACUGUCUGGUAAAACCGU, the “3' UTR reporter interaction score” value in [1] is 0.747; in [2], 0.575; in data set [3], -0.137; in data set [4] it was -1.39; in data set [5], 0.8; in data set [6] it was 0.612. Further, the “3' UTR reporter interaction score” value in [7] was 0.264; in [8] it was 0.716; in data set [9], -0.165; in data set [10], 0.0543; in data set [11] it was -1.04; in data set [12], 0.422. Besides, the entries for the “3' UTR reporter interaction score” value in data set [13] and in [14] were -6.85 and -2.29, respectively.
With CAGCAGCACACUGUGGUUUGU, the “3' UTR reporter interaction score” value was -4.01 in data set [1]; -0.42 in [2]; 0.464 in [3]; -0.283 in [4]; 0.347 in data set [5]; -0.141 in data set [6]. The “3' UTR reporter interaction score” value is -1.05 in data set [7]; -1.21 in data set [8]; 0.267 in data set [9]; -0.308 in data set [10]; -2.99 in data set [11]; 1.13 in [12]. Besides, the “3' UTR reporter interaction score” value in data set [13] is 1.1; in [14], -2.62.
With ACAAAGUGCUUCCCUUUAGAGU, the “3' UTR reporter interaction score” value in data set [1] was -0.45; in data set [2], -0.183; in data set [3] it was 1.29; in data set [4], 0.795; in [5], -0.239; in data set [6], -0.344. The “3' UTR reporter interaction score” value in [7] is 0.332; in [8], -0.0342; in data set [9] it was -0.366; in data set [10], -0.415; in data set [11], 0.628; in [12], -0.537. The “3' UTR reporter interaction score” value stood at 0.377 in data set [13] and 0.129 in [14].
For CUGUGCGUGUGACAGCGGCUGA, the “3' UTR reporter interaction score” value in data set [1] is -2.16; in [2], 0.24; in [3], -2.14; in data set [4], 0.0936; in [5], -0.0999; in data set [6], 1.29. Moreover, the “3' UTR reporter interaction score” value is -0.943 in data set [7]; -0.315 in data set [8]; -0.102 in [9]; 0.618 in [10]; 0.121 in [11]; 0.722 in data set [12]. For the same sequence, the “3' UTR reporter interaction score” value in [13] was determined as 2.18; in data set [14], 1.02.
